Assay results published in PubChem BioAssay AID2060909 (Molecular Pharmacology Branch, DTP, NCI, 2025).
Several values for one entry are separate records, joined by “and”; a condition that tells them apart may be missing. Identical values can stand only once.

System: 362531-283-R-J2-PDC complex spheroid viability
Test: Anticancer human tumor 362531-283-R-J2-PDC patient-derived colon adenocarcinoma cell line growth inhibition [RAS]
Settings: for viability, T/C: stronger effect = lower value
From the text: RAS pathway inhibitors in Combinations in Complex Spheroids
A high-throughput screen of multi-cell type tumor spheroids was designed to identify active combinations of RAS pathway inhibitors and targeted small molecules. Complex spheroids include a stromal component modeled by human endothelial cells (HUVEC) and fibroblasts modeled by human mesenchymal stem cells (MSCs). The concentration ranges selected for each drug and investigational agent were based upon clinically achievable concentrations if the clinical Cmax of the agent was known.
Compounds. The drugs and investigational agents: abemaciclib (NSC768073), cobimetinib (NSC768068), divarasib (GDC6063, NSC841802), docetaxel (NSC628503), GDC-1971 (RLY-1971, NSC841576), gemcitabine (NSC613327), inavolisib (NSC800729), ipatasertib (NSC767898), KB-0742 (NSC834161), MRTX-1133 (NSC836407), osimertinib (NSC779217), RMC-4630 (NSC839698), RMC-6236 (NSC851965), RMC-6291 (NSC852671), Ro-3306 (NSC812927), sapanisertib (NSC764658), SN-38 (NSC673596), staurosporine (NSC755774), SY5609 (NSC837396), and tovorafenib (DAY101, NSC766906), were obtained from the National Cancer Institute (NCI) Developmental Therapeutics Program Chemical Repository. The FDA-approved anticancer drug set is available from the NCI Developmental Therapeutics Program. […] The stock solutions were prepared in dimethyl sulfoxide (DMSO, Sigma-Aldrich, St. Louis, MO, cat. D2650) at 800-fold the tested concentration and stored at -70 degrees C prior to their use. All drugs and investigational agents were tested over a range starting from a high concentration at or near the clinical Cmax and decreasing in half-log increments. If the clinical Cmax for an agent had not been determined, the highest concentration tested was 10 microM.
Cell Culture. All cells were maintained in an incubator at 37 degrees C and 5% CO2 with 95% humidity. The PDC lines were cultured according to standard operating procedures established by the NCI PDMR. All PDCs were thawed and cultured in Matrigel-coated flasks prepared with a working solution of 1X Ham's F-12 nutrient mix, without supplementation (Invitrogen, Waltham, MA, cat. 11765054), 100 U/mL penicillin-streptomycin (Invitrogen, cat. 15140122), and 2.5% Matrigel (Corning Inc., Corning, NY, cat. 354248) for the first three passages. The 362531-283-R-J2-PDC and 782815-120-R-J1-PDC lines were cultured in 6C/Colon 1B media, which includes advanced DMEM/F-12 (Thermo Fisher Scientific, cat. 12634028), 10 mM HEPES (Thermo Fisher Scientific, cat. 15630080), 1X GlutaMAX supplement (Thermo Fisher Scientific, cat. 35050061), 0.1 mg/mL primocin (InvivoGen, San Diego, CA, cat. ant-pm-2), 10% defined fetal bovine serum, heat inactivated (HyClone Laboratories Inc., Logan, UT, cat. SH30070.03HI), 50% L-WRN conditioned media (ATCC, cat. CRL-3276), 1.25 mM N-Acetyl-L-cysteine (Sigma-Aldrich, cat. A9165), 10 mM nicotinamide (Sigma-Aldrich, cat. N0636), 1X B-27 supplement (Thermo Fisher Scientific, cat. 17504044), 1X N-2 supplement (Thermo Fisher Scientific, cat. 17502048), 50 ng/mL human EGF (Thermo Fisher Scientific, cat. PHG0311), and 10 microM Y-27632 dihydrochloride (Tocris Bioscience, cat. 1254). The K12877-001-R-J1-PDC line was cultured in 6I media, which includes all 6C/Colon 1B media plus 10 ng/mL human FGF-10 (PeproTech, cat. 100-26), 1 ng/mL human FGF-2 (PeproTech, cat. 100-18B), 1 µM prostaglandin E2 (Tocris Bioscience, cat. 2296), […] hydrocortisone (Sigma-Aldrich, cat. H4001), and […] bovine insulin (Sigma-Aldrich, cat. I6634). The K86415-001-R-J1-PDC line was cultured in 6D media, which includes all 6C/Colon 1B media components minus the L-WRN conditioned media. The 485176-168-R4-J1-PDC was cultured in PANC media, which includes all 6C/Colon 1B media plus 100 ng/mL human FGF-10 (PeproTech, cat. 100-26), 500 nM SB-431542 (Selleckchem, cat. S1067), and 10 nM gastrin (Tocris Bioscience, cat. 3006). […]
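Also: spheroids exposed to the agents for 7 days before readout.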
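For viability, T/C in this document: luminescence viability as percent of DMSO vehicle control wells.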

CCc1c2c(nc3ccc(O)cc13)-c1cc3c(c(=O)n1C2)COC(=O)[C@]3(O)CC + CCn1c(-c2cccnc2C(C)OC)c2c3cc(ccc31)N1CCOC(CC(NC(=O)C(C(C)C)N(C)C(=O)C3(F)CCN(C(=O)C#CC(C)(C)N(C)C)CC3)C(=O)N3CCCC(N3)C(=O)OCC(C)(C)C2)C1
IC50 (curve of first compound, second compound 0.000949 µM): 58.1 nM
IC50 (curve of first compound, second compound 0.003 µM): 32.9 nM
IC50 (curve of first compound, second compound 0.00949 µM): 51.3 nM
IC50 (curve of first compound, second compound 0.03 µM): 60.5 nM
IC50 (curve of first compound, second compound 0.0949 µM): 56.1 nM
IC50 (curve of first compound, second compound 0.3 µM): 44.2 nM
viability, T/C (second compound 0.000949 µM, first compound 0.000949 µM): 96.5%
viability, T/C (second compound 0.000949 µM, first compound 0.003 µM): 91.6%
viability, T/C (second compound 0.000949 µM, first compound 0.00949 µM): 83%
viability, T/C (second compound 0.000949 µM, first compound 0.03 µM): 73.6%
viability, T/C (second compound 0.000949 µM, first compound 0.0949 µM): 32.9%
viability, T/C (second compound 0.000949 µM, first compound 0.3 µM): 18%
viability, T/C (second compound 0.003 µM, first compound 0.000949 µM): 112%
viability, T/C (second compound 0.003 µM, first compound 0.003 µM): 91.6%
viability, T/C (second compound 0.003 µM, first compound 0.00949 µM): 82.5%
viability, T/C (second compound 0.003 µM, first compound 0.03 µM): 45.9%
viability, T/C (second compound 0.003 µM, first compound 0.0949 µM): 34%
viability, T/C (second compound 0.003 µM, first compound 0.3 µM): 16.7%
viability, T/C (second compound 0.00949 µM, first compound 0.000949 µM): 101%
viability, T/C (second compound 0.00949 µM, first compound 0.003 µM): 99.2%
viability, T/C (second compound 0.00949 µM, first compound 0.00949 µM): 76.1%
viability, T/C (second compound 0.00949 µM, first compound 0.03 µM): 65%
viability, T/C (second compound 0.00949 µM, first compound 0.0949 µM): 35.5%
viability, T/C (second compound 0.00949 µM, first compound 0.3 µM): 17.8%
viability, T/C (second compound 0.03 µM, first compound 0.000949 µM): 103%
viability, T/C (second compound 0.03 µM, first compound 0.003 µM): 90.8%
viability, T/C (second compound 0.03 µM, first compound 0.00949 µM): 89%
viability, T/C (second compound 0.03 µM, first compound 0.03 µM): 71.8%
viability, T/C (second compound 0.03 µM, first compound 0.0949 µM): 35.8%
viability, T/C (second compound 0.03 µM, first compound 0.3 µM): 15.7%
viability, T/C (second compound 0.0949 µM, first compound 0.000949 µM): 95.1%
viability, T/C (second compound 0.0949 µM, first compound 0.003 µM): 93.1%
viability, T/C (second compound 0.0949 µM, first compound 0.00949 µM): 84.8%
viability, T/C (second compound 0.0949 µM, first compound 0.03 µM): 60.1%
viability, T/C (second compound 0.0949 µM, first compound 0.0949 µM): 40.9%
viability, T/C (second compound 0.0949 µM, first compound 0.3 µM): 16.4%
viability, T/C (second compound 0.3 µM, first compound 0.000949 µM): 90.3%
viability, T/C (second compound 0.3 µM, first compound 0.003 µM): 108%
viability, T/C (second compound 0.3 µM, first compound 0.00949 µM): 90.3%
viability, T/C (second compound 0.3 µM, first compound 0.03 µM): 57.6%
viability, T/C (second compound 0.3 µM, first compound 0.0949 µM): 32.5%
viability, T/C (second compound 0.3 µM, first compound 0.3 µM): 13.3%

NC1c2ccccc2OC12CCN(c1cnc3c(N4CCCc5ncccc54)n[nH]c3n1)CC2 (stereo unspecified)
viability, T/C (compound 0.0316 µM): 95.1% [middle of 4 runs]
viability, T/C (compound 0.1 µM): 90% [middle of 4 runs]
viability, T/C (compound 0.316 µM): 85.3% [middle of 4 runs]
viability, T/C (compound 1 µM): 76.1% [middle of 4 runs]
viability, T/C (compound 3.16 µM): 68.5% [middle of 4 runs]
viability, T/C (compound 10 µM): 49.4% [middle of 4 runs]
IC50 (curve of compound): > 10000 nM and 6070 nM and 8410 nM

Nc1ccn(C2OC(CO)C(O)C2(F)F)c(=O)n1 (stereo unspecified)
viability, T/C (compound 0.00316 µM): 93.5% [middle of 4 runs]
viability, T/C (compound 0.01 µM): 95.2% [middle of 4 runs]
viability, T/C (compound 0.0316 µM): 84.4% [middle of 4 runs]
viability, T/C (compound 0.1 µM): 70.5% [middle of 4 runs]
viability, T/C (compound 0.316 µM): 21.9% [middle of 4 runs]
viability, T/C (compound 1 µM): 26.6% [middle of 4 runs]
IC50 (curve of compound): 167 nM [middle of 4 runs]
